Article PMC12042115 (mLife, 2025)

System: wild‐type BCG cells
Type: cell-based, M. bovis BCG
Conditions: up-regulated

For O=C(Oc1ccc(Cl)cc1)c1ccc(N2CCOCC2)c([N+](=O)[O-])c1 [GDI‐5755], the “Mean_Ratio (GDI5755_3d vs DMSO_3d), protein BCG_3567c” value (A0A0H3M9P9, Mtb Rv3503c, Ferredoxin, fdxD) was 1.7, the “Mean_Ratio (GDI5755_3d vs DMSO_3d), protein BCG_0108c” value (A0A0H3M9Q4, Mtb Rv0077c, Probable oxidoreductase) was 1.7 and the “Mean_Ratio (GDI5755_3d vs DMSO_3d), protein BCG_0192” value (A0A0H3M9W8, Mtb Rv0156, proton-translocating NAD(P)(+) transhydrogenase,pntAb) was 1.4. For the same molecule, the “Mean_Ratio (GDI5755_3d vs DMSO_3d), protein BCG_0727” value (A0A0H3M257, Mtb Rv0678, Transcriptional regulator, MmpR5) was 1.5, the “Mean_Ratio (GDI5755_3d vs DMSO_3d), protein BCG_0761” value (A0A0H3M268, Mtb Rv0711, Possible arylsulfatase atsA) was 2.1 and the “Mean_Ratio (GDI5755_3d vs DMSO_3d), protein BCG_0463c” value (A0A0H3M270, Mtb Rv0424c, Uncharacterized protein) was 1.4. For the same molecule, the “Mean_Ratio (GDI5755_3d vs DMSO_3d), protein BCG_0835” value (A0A0H3M322, Mtb Rv0784, Deacetylase) was 1.4, the “Mean_Ratio (GDI5755_3d vs DMSO_3d), protein BCG_0351” value (A0A0H3M331, Mtb MRA_0320, Uncharacterized protein) was 1.5 and the “Mean_Ratio (GDI5755_3d vs DMSO_3d), protein BCG_0391” value (A0A0H3M380, Mtb Rv0352, Chaperone protein DnaJ) was 1.5. The “Mean_Ratio (GDI5755_3d vs DMSO_3d), protein BCG_1609” value (A0A0H3M480, Mtb Rv1557, conserved transmembrane transport protein mmpL6) was 1.6, the “Mean_Ratio (GDI5755_3d vs DMSO_3d), protein BCG_2010c” value (A0A0H3M561, Mtb Rv1993c, DUF1490 family protein) was 1.8 and the “Mean_Ratio (GDI5755_3d vs DMSO_3d), protein BCG_2346c” value (A0A0H3M622, Mtb Rv2325c, Energy-coupling factor transporter transmembrane protein EcfT) was 1.8. The “Mean_Ratio (GDI5755_3d vs DMSO_3d), protein BCG_2009c” value (A0A0H3M639, Mtb Rv1992c, Probable metal cation transporter P-type atpase G ctpG) was 1.3, the “Mean_Ratio (GDI5755_3d vs DMSO_3d), protein BCG_1549” value (A0A0H3M660, Mtb MRA_1496, Conserved membrane protein) was 1.5 and the “Mean_Ratio (GDI5755_3d vs DMSO_3d), protein BCG_2360c” value (A0A0H3M719, Mtb Rv2338c, Possible molybdopterin biosynthesis protein moeW) was 1.4. The “Mean_Ratio (GDI5755_3d vs DMSO_3d), protein BCG_2455” value (A0A0H3M775, Mtb Rv2436, Ribokinase, rbsK) was 1.3, the “Mean_Ratio (GDI5755_3d vs DMSO_3d), protein BCG_0465c” value (A0A0H3M812, Mtb MRA_0431, Possible transmembrane protein) was 1.7 and the “Mean_Ratio (GDI5755_3d vs DMSO_3d), protein BCG_0517” value (A0A0H3M881, Mtb Rv0476, Possible conserved transmembrane protein) was 1.4. The “Mean_Ratio (GDI5755_3d vs DMSO_3d), protein BCG_2934c” value (A0A0H3M896, Mtb Rv2913c, Possible D-amino acid aminohydrolase) was 1.4, the “Mean_Ratio (GDI5755_3d vs DMSO_3d), protein BCG_0993” value (A0A0H3M955, Mtb Rv0939, Possible bifunctional enzyme: 2-hydroxyhepta-2,4-diene-1,7-dioate isomerase + cyclase/dehydrase) was 1.3 and the “Mean_Ratio (GDI5755_3d vs DMSO_3d), protein BCG_3532” value (A0A0H3M969, HNH nuclease domain-containing protein) was 1.4. The “Mean_Ratio (GDI5755_3d vs DMSO_3d), protein BCG_3038” value (A0A0H3MA42, Mtb Rv3016, Probable lipoprotein lpqA) was 1.3, the “Mean_Ratio (GDI5755_3d vs DMSO_3d), protein BCG_0289c” value (A0A0H3MA45, Mtb Rv0251c, HSP20 family protein/ Heat stress induced ribosome-binding protein A,acr2) was 3.9 and the “Mean_Ratio (GDI5755_3d vs DMSO_3d), protein BCG_3881” value (A0A0H3MA52, Mtb Rv3819, Uncharacterized protein) was 1.4. For the same molecule, the “Mean_Ratio (GDI5755_3d vs DMSO_3d), protein BCG_3758” value (A0A0H3MAA8, Mtb Rv3699, Methyltransferase domain-containing protein) was 1.3, the “Mean_Ratio (GDI5755_3d vs DMSO_3d), protein BCG_0380” value (A0A0H3MAC3, Mtb Rv0341, Isoniazid inductible gene protein iniB) was 1.7 and the “Mean_Ratio (GDI5755_3d vs DMSO_3d), protein BCG_0413c” value (A0A0H3MAE2, Mtb Rv0375c, carbon monoxyde dehydrogenase (Medium chain)) was 1.6. The “Mean_Ratio (GDI5755_3d vs DMSO_3d), protein BCG_0595c” value (A0A0H3MAN8, Mtb Rv0550c, Antitoxin VapB3) was 1.4, the “Mean_Ratio (GDI5755_3d vs DMSO_3d), protein BCG_3239” value (A0A0H3MAP0, Conserved hypothetical alanine valine rich protein) was 1.4 and the “Mean_Ratio (GDI5755_3d vs DMSO_3d), protein BCG_3281c” value (A0A0H3MAS0, Mtb Rv3252c, transmembrane alkane 1-monooxygenase alkB) was 1.5. The “Mean_Ratio (GDI5755_3d vs DMSO_3d), protein BCG_3298” value (A0A0H3MAT3, Mtb Rv3269, peptidoglycan-based cell wall/chaperonin-like protein,pacL1) was 2.3, the “Mean_Ratio (GDI5755_3d vs DMSO_3d), protein BCG_3319c” value (A0A0H3MAV3, Mtb Rv3290c, L-lysine 6-transaminase, lat) was 1.7 and the “Mean_Ratio (GDI5755_3d vs DMSO_3d), protein BCG_3928” value (A0A0H3MAW6, Mtb Rv3865, ESX-1 secretion-associated protein EspF) was 1.6. The “Mean_Ratio (GDI5755_3d vs DMSO_3d), protein BCG_0725c” value (A0A0H3MAX0, Mtb Rv0676c,, conserved transmembrane transport protein mmpL5) was 1.6, the “Mean_Ratio (GDI5755_3d vs DMSO_3d), protein BCG_0774” value (A0A0H3MAY5, Mtb Rv0724, Possible protease IV sppA (Endopeptidase IV)) was 1.4 and the “Mean_Ratio (GDI5755_3d vs DMSO_3d), protein BCG_3476” value (A0A0H3MB64, Mtb Rv3406, Probable dioxygenase) was 1.6. For the same molecule, the “Mean_Ratio (GDI5755_3d vs DMSO_3d), protein BCG_1890c” value (A0A0H3MB87, Mtb Rv1854c, NADH dehydrogenase ndh) was 1.5, the “Mean_Ratio (GDI5755_3d vs DMSO_3d), protein BCG_3590” value (A0A0H3MBE7, Mtb Rv3526, Rieske-type oxygenase) was 1.4 and the “Mean_Ratio (GDI5755_3d vs DMSO_3d), protein BCG_2026” value (A0A0H3MBK2, Mtb Rv2009, Antitoxin VapB15, BCG_2026) was 1.4. The “Mean_Ratio (GDI5755_3d vs DMSO_3d), protein BCG_2056c” value (A0A0H3MBM9, Mtb MRA_2052, conserved transmembrane protein) was 1.4, the “Mean_Ratio (GDI5755_3d vs DMSO_3d), protein BCG_1028c” value (A0A0H3MBR5, Mtb Rv0974c, Probable acetyl-/propionyl-coa carboxylase (Beta subunit) accD2) was 1.4 and the “Mean_Ratio (GDI5755_3d vs DMSO_3d), protein BCG_3824c” value (A0A0H3MBY6, Mtb Rv3765c, Two component transcriptional regulatory protein，TcrX) was 1.4. For the same molecule, the “Mean_Ratio (GDI5755_3d vs DMSO_3d), protein BCG_1101c” value (A0A0H3MBZ0, Mtb Rv1043c, Serine protease，BCG_1101c) was 1.4, the “Mean_Ratio (GDI5755_3d vs DMSO_3d), protein BCG_2613” value (A0A0H3MCY6, Mtb Rv2590, Carboxylic acid reductase,fadD9) was 1.6 and the “Mean_Ratio (GDI5755_3d vs DMSO_3d), protein BCG_2656” value (A0A0H3MD16, Mtb Rv2629, Uncharacterized protein) was 1.4. For the same molecule, the “Mean_Ratio (GDI5755_3d vs DMSO_3d), protein BCG_3528” value (A0A0H3MEV5, Mtb Rv3463, Luciferase-like domain-containing protein) was 1.4, the “Mean_Ratio (GDI5755_3d vs DMSO_3d), protein BCG_2486c” value (A0A0H3MFK9, Mtb Rv2466c, DSBA-like thioredoxin domain-containing protein) was 1.7 and the “Mean_Ratio (GDI5755_3d vs DMSO_3d), protein BCG_2502c” value (A0A0H3MFM6, Mtb Rv2484c, Diacylglycerol O-acyltransferase) was 1.4. The “Mean_Ratio (GDI5755_3d vs DMSO_3d), protein BCG_2658” value (A0A0H3MG12, Mtb Rv2631, tRNA-splicing ligase RtcB) was 1.4, the “Mean_Ratio (GDI5755_3d vs DMSO_3d), protein BCG_2794c” value (A0A0H3MGD9, Mtb Rv2777c, Metal-dependent hydrolase) was 1.5 and the “Mean_Ratio (GDI5755_3d vs DMSO_3d), protein BCG_2984” value (A0A0H3MGS1, Mtb Rv2963, integral membrane protein) was 1.5. For the same molecule, the “Mean_Ratio (GDI5755_3d vs DMSO_3d), protein BCG_3119c” value (A0A0H3MH35, Mtb Rv3094c, Hydroxylase) was 1.4, the “Mean_Ratio (GDI5755_3d vs DMSO_3d), protein BCG_3299” value (A0A0H3MHJ0, Mtb Rv3270, metal cation-transporting P-type atpase C ctpC) was 1.5 and the “Mean_Ratio (GDI5755_3d vs DMSO_3d), protein BCG_3591” value (A0A0H3MID2, Mtb Rv3527, Uncharacterized protein) was 1.6. For the same molecule, the “Mean_Ratio (GDI5755_3d vs DMSO_3d), protein BCG_3917c” value (A0A0H3MJE2, Mtb Rv3854c, Monooxygenase ethA) was 1.5, the “Mean_Ratio (GDI5755_3d vs DMSO_3d), protein BCG_0095” value (A1KEN2, Mtb Rv0064, UPF0182 protein BCG_0095) was 1.4 and the “Mean_Ratio (GDI5755_3d vs DMSO_3d), protein BCG_0181” value (A1KEW5, Mtb Rv0145, S-adenosyl-L-methionine-dependent methyltransferase BCG_0181) was 1.8. The “Mean_Ratio (GDI5755_3d vs DMSO_3d), protein BCG_0182” value (A1KEW6, Mtb Rv0146, Putative S-adenosyl-L-methionine-dependent methyltransferase) was 2.8, the “Mean_Ratio (GDI5755_3d vs DMSO_3d), protein BCG_0248” value (A1KF31, Mtb Rv0211, Phosphoenolpyruvate carboxykinase [GTP], pckG) was 2.3 and the “Mean_Ratio (GDI5755_3d vs DMSO_3d), protein BCG_0389” value (A1KFH2, Mtb Rv0350, Chaperone protein DnaK/Heat shock protein 70) was 1.5. For the same molecule, the “Mean_Ratio (GDI5755_3d vs DMSO_3d), protein BCG_0390” value (A1KFH3, Mtb Rv0351, Protein GrpE/HSP-70 cofactor) was 1.4, the “Mean_Ratio (GDI5755_3d vs DMSO_3d), protein BCG_0516” value (A1KFU9, Mtb Rv0475, Heparin-binding hemagglutinin) was 1.3 and the “Mean_Ratio (GDI5755_3d vs DMSO_3d), protein BCG_0605c” value (A1KG37, Mtb Rv0560c, Benzoquinone methyltransferase/Rv0560c/htm) was 2.5. The “Mean_Ratio (GDI5755_3d vs DMSO_3d), protein BCG_0883” value (A1KGW3, Mtb Rv0830, S-adenosyl-L-methionine-dependent methyltransferase) was 1.9, the “Mean_Ratio (GDI5755_3d vs DMSO_3d), protein BCG_1036” value (A1KHB7, Mtb Rv0981, Response regulator MprA) was 1.4 and the “Mean_Ratio (GDI5755_3d vs DMSO_3d), protein BCG_1284” value (A1KI12, Mtb Rv1224, Sec-independent protein translocase protein TatB) was 1.4.
